Test results from ChEMBL document CHEMBL4145649, “Identification of the 4-Position of 3-Alkynyl and 3-Heteroaromatic Substituted Pyridine Methanamines as a Key Modification Site Eliciting Increased Potency and Enhanced Selectivity for Cytochrome P-450 2A6 Inhibition” (J Med Chem, 2018).

Columns and labels:
Cytochrome P450 1A2 = molecular target: T1, Cytochrome P450 1A2 (Homo sapiens, UniProt P05177); test: Inhibition of CYP1A2 in human liver microsomes using phenacetin as substrate preincubated for 5 mins followed by addition of NADPH-regenerating system and measured after 15 mins by UPLC-MS analysis
T1 sequence (P05177 whole entry): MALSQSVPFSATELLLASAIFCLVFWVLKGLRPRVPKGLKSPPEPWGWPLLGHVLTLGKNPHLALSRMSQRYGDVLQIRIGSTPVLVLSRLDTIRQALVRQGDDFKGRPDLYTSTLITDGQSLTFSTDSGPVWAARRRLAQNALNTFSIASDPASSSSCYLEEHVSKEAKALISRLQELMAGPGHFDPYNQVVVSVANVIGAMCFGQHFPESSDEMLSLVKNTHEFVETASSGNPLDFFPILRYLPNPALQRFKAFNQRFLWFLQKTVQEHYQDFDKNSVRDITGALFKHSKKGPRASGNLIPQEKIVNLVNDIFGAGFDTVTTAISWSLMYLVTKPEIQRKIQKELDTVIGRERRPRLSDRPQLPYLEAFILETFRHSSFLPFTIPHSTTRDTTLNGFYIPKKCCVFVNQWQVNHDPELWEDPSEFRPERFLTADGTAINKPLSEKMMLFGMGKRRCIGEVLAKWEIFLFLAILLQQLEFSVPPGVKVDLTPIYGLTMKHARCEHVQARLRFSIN

Cytochrome P450 2B6 = molecular target: T2, Cytochrome P450 2B6 (Homo sapiens, UniProt P20813); test: Inhibition of CYP2B6 in human liver microsomes using bupropion as substrate preincubated for 5 mins followed by addition of NADPH-regenerating system and measured after 15 mins by UPLC-MS analysis
T2 sequence (P20813 whole entry): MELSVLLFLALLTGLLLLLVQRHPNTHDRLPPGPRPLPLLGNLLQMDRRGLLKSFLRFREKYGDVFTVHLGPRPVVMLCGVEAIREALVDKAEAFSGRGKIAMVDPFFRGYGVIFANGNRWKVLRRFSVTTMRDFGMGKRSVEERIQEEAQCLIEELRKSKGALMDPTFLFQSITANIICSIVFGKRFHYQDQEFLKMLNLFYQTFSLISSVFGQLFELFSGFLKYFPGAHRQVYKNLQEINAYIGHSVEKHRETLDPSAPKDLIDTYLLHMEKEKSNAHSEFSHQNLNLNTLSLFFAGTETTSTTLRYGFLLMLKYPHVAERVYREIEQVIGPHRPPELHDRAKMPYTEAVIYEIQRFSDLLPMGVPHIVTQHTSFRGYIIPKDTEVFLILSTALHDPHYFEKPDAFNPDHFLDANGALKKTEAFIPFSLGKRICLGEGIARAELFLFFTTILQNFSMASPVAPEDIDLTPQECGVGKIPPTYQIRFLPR

Cytochrome P450 2C8 = molecular target: T3, Cytochrome P450 2C8 (Homo sapiens, UniProt P10632); test: Inhibition of CYP2C8 in human liver microsomes using amodiaquine as substrate preincubated for 5 mins followed by addition of NADPH-regenerating system and measured after 15 mins by UPLC-MS analysis
T3 sequence (P10632 whole entry): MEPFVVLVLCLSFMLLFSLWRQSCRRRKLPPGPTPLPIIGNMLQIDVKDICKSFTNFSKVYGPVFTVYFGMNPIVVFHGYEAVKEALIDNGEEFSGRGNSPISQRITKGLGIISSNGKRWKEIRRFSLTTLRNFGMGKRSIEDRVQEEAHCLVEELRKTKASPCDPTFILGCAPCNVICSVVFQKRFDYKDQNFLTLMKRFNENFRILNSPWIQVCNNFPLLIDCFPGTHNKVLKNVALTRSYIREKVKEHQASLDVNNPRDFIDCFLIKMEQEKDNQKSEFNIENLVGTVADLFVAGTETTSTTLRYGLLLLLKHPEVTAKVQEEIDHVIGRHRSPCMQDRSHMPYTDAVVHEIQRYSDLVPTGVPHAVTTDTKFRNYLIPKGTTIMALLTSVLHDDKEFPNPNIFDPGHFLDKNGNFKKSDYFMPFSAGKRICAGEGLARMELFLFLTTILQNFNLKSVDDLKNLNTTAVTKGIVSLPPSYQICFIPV

Cytochrome P450 2D6 = Cytochrome P450 2D6 (Homo sapiens, UniProt P10635); test: Inhibition of CYP2D6 in human liver microsomes using dextromethorphan as substrate preincubated for 5 mins followed by addition of NADPH-regenerating system and measured after 15 mins by UPLC-MS analysis
Cytochrome P450 2D6, sequence (P10635 whole entry): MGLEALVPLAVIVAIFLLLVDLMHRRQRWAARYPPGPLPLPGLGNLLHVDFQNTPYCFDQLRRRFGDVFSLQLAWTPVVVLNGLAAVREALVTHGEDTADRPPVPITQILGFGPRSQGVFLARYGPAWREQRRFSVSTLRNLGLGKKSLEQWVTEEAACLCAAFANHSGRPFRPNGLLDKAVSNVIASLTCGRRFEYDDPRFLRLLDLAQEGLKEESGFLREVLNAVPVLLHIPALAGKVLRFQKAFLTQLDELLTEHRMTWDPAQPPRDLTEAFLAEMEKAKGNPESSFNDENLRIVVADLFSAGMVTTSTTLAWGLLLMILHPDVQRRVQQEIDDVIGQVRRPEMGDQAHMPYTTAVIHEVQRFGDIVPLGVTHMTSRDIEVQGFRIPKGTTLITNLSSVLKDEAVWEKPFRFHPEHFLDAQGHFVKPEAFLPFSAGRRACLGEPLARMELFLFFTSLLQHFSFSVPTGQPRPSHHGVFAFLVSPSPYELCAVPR

Cytochrome P450 2E1 = Cytochrome P450 2E1 (Homo sapiens, UniProt P05181); test: Inhibition of CYP2E1 in human liver microsomes using chlorzoxazone as substrate preincubated for 5 mins followed by addition of NADPH-regenerating system and measured after 15 mins by UPLC-MS analysis
Cytochrome P450 2E1, sequence (P05181 whole entry): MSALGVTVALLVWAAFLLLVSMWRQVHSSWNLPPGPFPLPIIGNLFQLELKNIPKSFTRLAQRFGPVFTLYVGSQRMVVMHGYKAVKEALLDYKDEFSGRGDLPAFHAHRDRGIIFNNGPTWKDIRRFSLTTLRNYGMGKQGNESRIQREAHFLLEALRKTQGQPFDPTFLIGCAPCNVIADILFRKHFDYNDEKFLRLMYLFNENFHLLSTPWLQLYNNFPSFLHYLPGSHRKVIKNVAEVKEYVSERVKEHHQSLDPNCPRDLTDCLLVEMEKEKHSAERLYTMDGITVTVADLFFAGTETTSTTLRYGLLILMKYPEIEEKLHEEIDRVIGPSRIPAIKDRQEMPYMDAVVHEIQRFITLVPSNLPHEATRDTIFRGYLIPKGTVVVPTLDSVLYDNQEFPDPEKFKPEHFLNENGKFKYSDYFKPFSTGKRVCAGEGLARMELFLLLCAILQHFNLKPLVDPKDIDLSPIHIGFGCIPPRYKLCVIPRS

Cytochrome P450 3A4 = Cytochrome P450 3A4 (Homo sapiens, UniProt P08684); test: Inhibition of CYP3A4 in human liver microsomes using midazolam as substrate preincubated for 5 mins followed by addition of NADPH-regenerating system and measured after 15 mins by UPLC-MS analysis
Cytochrome P450 3A4, sequence (P08684 whole entry): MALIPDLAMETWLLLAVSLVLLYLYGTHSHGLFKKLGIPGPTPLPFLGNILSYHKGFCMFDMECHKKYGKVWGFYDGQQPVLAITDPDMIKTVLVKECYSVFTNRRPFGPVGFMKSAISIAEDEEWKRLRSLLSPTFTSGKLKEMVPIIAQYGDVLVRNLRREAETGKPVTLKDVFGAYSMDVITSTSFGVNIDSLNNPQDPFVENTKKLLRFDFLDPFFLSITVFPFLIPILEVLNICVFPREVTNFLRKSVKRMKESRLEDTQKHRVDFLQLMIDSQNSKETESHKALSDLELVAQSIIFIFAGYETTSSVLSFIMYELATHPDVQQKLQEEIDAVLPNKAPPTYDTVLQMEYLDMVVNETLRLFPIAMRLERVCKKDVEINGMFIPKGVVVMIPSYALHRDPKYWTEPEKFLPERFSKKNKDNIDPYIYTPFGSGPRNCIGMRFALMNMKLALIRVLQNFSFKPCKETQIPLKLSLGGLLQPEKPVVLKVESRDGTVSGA

[1] = Half life in human liver microsomes at 10 uM up to 2 hrs at 37 degC in presence of NADPH-regenerating system by UPLC/MS analysis
Cytochrome P450 2C9 = Cytochrome P450 2C9 (Homo sapiens, UniProt P11712); test: Inhibition of CYP2C9 in human liver microsomes using diclofenac as substrate preincubated for 5 mins followed by addition of NADPH-regenerating system and measured after 15 mins by UPLC-MS analysis
Cytochrome P450 2C9, sequence (P11712 whole entry): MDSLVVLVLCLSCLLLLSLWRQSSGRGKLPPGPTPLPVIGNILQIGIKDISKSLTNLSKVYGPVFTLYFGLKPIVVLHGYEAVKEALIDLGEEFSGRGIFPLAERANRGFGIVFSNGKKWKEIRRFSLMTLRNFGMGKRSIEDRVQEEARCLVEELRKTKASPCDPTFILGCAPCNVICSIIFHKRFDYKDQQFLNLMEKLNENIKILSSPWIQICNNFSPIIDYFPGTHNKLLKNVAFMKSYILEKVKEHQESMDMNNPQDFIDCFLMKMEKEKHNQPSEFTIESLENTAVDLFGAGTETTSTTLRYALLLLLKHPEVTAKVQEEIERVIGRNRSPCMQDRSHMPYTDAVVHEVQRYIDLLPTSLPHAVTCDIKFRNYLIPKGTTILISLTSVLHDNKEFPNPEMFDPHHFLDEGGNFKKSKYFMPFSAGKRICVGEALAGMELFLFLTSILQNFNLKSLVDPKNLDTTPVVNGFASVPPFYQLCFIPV

Cytochrome P450 2C19 = Cytochrome P450 2C19 (Homo sapiens, UniProt P33261); test: Inhibition of CYP2C19 in human liver microsomes using omeprazole as substrate preincubated for 5 mins followed by addition of NADPH-regenerating system and measured after 15 mins by UPLC-MS analysis
Cytochrome P450 2C19, sequence (P33261 whole entry): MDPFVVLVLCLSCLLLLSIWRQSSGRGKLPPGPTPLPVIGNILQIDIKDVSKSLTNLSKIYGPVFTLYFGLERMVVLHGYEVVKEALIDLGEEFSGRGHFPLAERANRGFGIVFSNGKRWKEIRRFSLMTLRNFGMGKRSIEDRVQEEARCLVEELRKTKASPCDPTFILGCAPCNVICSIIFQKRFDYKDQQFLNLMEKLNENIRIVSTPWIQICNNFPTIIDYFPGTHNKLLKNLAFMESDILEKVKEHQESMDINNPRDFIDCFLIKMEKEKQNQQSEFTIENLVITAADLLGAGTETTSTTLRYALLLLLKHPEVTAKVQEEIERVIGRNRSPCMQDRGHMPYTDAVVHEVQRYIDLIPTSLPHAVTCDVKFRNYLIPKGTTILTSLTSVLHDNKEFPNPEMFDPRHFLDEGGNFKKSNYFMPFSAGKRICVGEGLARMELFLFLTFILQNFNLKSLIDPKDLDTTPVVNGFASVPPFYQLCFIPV

Cytochrome P450 2A6 = molecular target: T4, Cytochrome P450 2A6 (Homo sapiens, UniProt P11509); test: Inhibition of CYP2A6 in human liver microsomes using coumarin as substrate preincubated for 5 mins followed by addition of NADPH-regenerating system and measured after 15 mins by UPLC-MS analysis
T4 sequence (P11509 whole entry): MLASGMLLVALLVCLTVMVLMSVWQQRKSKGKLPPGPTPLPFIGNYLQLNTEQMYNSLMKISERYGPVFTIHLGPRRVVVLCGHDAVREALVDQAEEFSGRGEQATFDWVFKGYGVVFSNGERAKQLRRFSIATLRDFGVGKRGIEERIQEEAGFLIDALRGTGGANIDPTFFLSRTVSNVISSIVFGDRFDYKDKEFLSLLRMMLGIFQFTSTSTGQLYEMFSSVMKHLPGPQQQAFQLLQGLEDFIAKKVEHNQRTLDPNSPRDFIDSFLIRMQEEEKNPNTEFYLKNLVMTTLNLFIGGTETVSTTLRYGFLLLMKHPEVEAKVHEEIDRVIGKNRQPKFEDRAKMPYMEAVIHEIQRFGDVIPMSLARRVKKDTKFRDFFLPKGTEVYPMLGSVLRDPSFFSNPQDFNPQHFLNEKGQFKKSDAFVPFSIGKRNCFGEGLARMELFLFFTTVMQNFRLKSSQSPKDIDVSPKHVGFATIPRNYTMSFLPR

IC50 (Cytochrome P450 1A2) [µM]	IC50 (Cytochrome P450 2B6) [µM]	IC50 (Cytochrome P450 2C8) [µM]	IC50 (Cytochrome P450 2D6) [µM]	IC50 (Cytochrome P450 2E1) [µM]	IC50 (Cytochrome P450 3A4) [µM]	t1/2 [1] [min]	IC50 (Cytochrome P450 2C9) [µM]	IC50 (Cytochrome P450 2C19) [µM]	SMILES	IC50 (Cytochrome P450 2A6) [µM]
21	> 25	> 50	12	> 25	> 25	36			Cl.Cl.Cl.NCC#Cc1cnccc1-c1ccncc1	
> 25	> 25	> 50	> 25	> 25	> 25				NCC#Cc1cnccc1-c1cncnc1	
1.4	5	7.5	3.9	1.9	11		2.8	3.7	NCC#Cc1cnccc1-c1ccco1	
25	40	> 25		> 50	39	> 120			Cl.Cl.Cl.Cl.NCc1ccc(-c2cnccc2-c2cncnc2)s1	
4.4	7.8	> 25		31	90	> 120	28	13	Cl.Cl.Cl.NCc1ccc(-c2cnccc2-c2cccnc2)o1	
7.6	> 25	> 50		> 50	> 25	> 120	> 25	> 25	Cl.Cl.Cl.Cl.NCc1ccc(-c2cnccc2-c2cncnc2)o1	
0.2	0.073	3.8	> 50	3.1	7		4.4	1.4	NCc1ccc(-c2cnccc2-c2ccco2)s1	
									NCC#Cc1cncnc1	> 10
4.8	3.5	> 25		31	214	32			Cl.Cl.Cl.NCc1ccc(-c2cnccc2-c2ccncc2)s1	
									Cc1cncc(C#CCN)c1	> 10

SMILES	IC50 (Cytochrome P450 1A2) [µM]	IC50 (Cytochrome P450 2B6) [µM]	IC50 (Cytochrome P450 2C8) [µM]	IC50 (Cytochrome P450 2D6) [µM]	IC50 (Cytochrome P450 2E1) [µM]	IC50 (Cytochrome P450 3A4) [µM]	t1/2 [1] [min]	IC50 (Cytochrome P450 2C9) [µM]	IC50 (Cytochrome P450 2C19) [µM]	IC50 (Cytochrome P450 2A6) [µM]
COc1ccncc1C#CCN	25	11	> 50	> 50	18	> 50		28	9.3	
Cc1ccncc1C#CCN.Cl.Cl	11	20	8.6	2.4	19	5.6	8.4	36	8	
CCc1ccncc1C#CCN.Cl.Cl	> 50	19	25	6.6	15	> 50	9.8			
